Measured values as given in US20230390270A1, “METHODS FOR TREATING REMITTING MULTIPLE SCLEROSIS” (BIOGEN MA INC., priority 2020, published 2023).

Key:
[1] = tested on: cuprizone demyelination in the corpus callosum; experiment: Cuprizone/rapamycin demyelination model; type: in vivo, mouse; conditions: oral gavage daily in the last 2 weeks of cuprizone/rapamycin treatment
Method: Nine week-old C57/BL6 mice were fed with chow pellets containing 0.3% cuprizone (Harlan) and injected with rapamycin intraperitoneally for 6 weeks (10 mg/kg, 5 days/week). Animals were treated with Compound 1 by oral gavage daily in the last 2 weeks of cuprizone/rapamycin treatment. Animals were sacrificed at the end of the last treatment and brains were dissected to determine the effect of Compound 1 on remyelination in the corpus callosum (white matter) and cerebral cortex regions. Coronal slices (septostriatal section, 1 mm thickness) through the corpus callosum were cut, then cut on the midsagittal plane and embedded in epon, oriented to visualize the entire cross-section of the midsagittal corpus callosum. Myelinated axons in the corpus callosum lesions were quantified by toluidine blue staining. ** p<0.01, *** p<0.001. […] Error bars denote the standard error of the mean. N=39 for the study.

[2] = Plasma concentration of Compound 1 in healthy volunteers; type: in vivo, human
Method: (§1) Forty-two healthy volunteers received Compound 1 QD for 28 days (or before early withdrawal), with 6 individual participants per cohort receiving 1 mg (Cohort 1), 3 mg (Cohort 2), 10 mg (Cohort 3), 30 mg (Cohort 4), 60 mg loading dose with 10 mg maintenance dosing (Cohort 5) Compound 1, 60 mg (Cohort 6), or 90 mg loading dose on Day 1 and Day 2 with 30 mg maintenance dosing (Cohort 7). There were also 14 participants who received placebo in the study; 1 participant in Cohort 4 was misdosed on Day 19 and appeared to have received at least one 30 mg dose of Compound 1. The following protocol deviations were reported for participants in Cohorts 1 through 5: they received predose water ad lib (not restricted for 1 hour before and 1 hour after dose) and a meal administered 30 minutes postdose (not 4 hours postdose). A total of 49 participants completed treatment, including 37 participants who received active treatment.
Based on these observations, a population PK/PD model was developed using Monolix to describe circulating cholesterol concentration as a function of plasma concentration of Compound 1 and exposure. The model was developed from cholesterol data from the study described above (Study 1) as well as two additional clinical studies (Study 2 and Study 3) in healthy volunteers. […]

neutrophils = experiment: Neutrophil and monocyte counts in the healthy volunteer study; type: in vivo, human
Method: as §1
(§2) Participants received the first dose of study treatment (Compound 1 or placebo) on Day 1 and continued to receive once-daily study treatment through Day 28. Participants remained in the clinic throughout the dosing period. Participants were discharged on Day 29 after completing all assessments.

circulating cholesterol [3] = experiment: Population PK/PD model (Monolix) of circulating cholesterol vs Compound 1 plasma concentration; set-up: species or system human
Text: Based on these observations, a population PK/PD model was developed using Monolix to describe circulating cholesterol concentration as a function of plasma concentration of Compound 1 and exposure. The model was developed from cholesterol data from the study described above (Study 1) as well as two additional clinical studies (Study 2 and Study 3) in healthy volunteers. In Study 2, thirty healthy volunteers received a single oral dose of Compound 1 with 6 individual participants per cohort receiving 3 mg (Cohort 1), 10 mg (Cohort 2), 30 mg (Cohort 3), 60 mg (Cohort 4), 100 mg (Cohort 5). There were also 9 participants who received placebo in the study. In Study 3, 8 healthy adult volunteers received a single dose of 30 mg of Compound 1.

[4] = tested on: human OPC-rat DRG co-culture; experiment: Human OPC-rat DRG co-culture myelination (MBP ICC); type: cell-based; conditions: 0.02, 0.2, or 2 μM vs DMSO control
Method: Embryonic dorsal root ganglia (DRG), dissected from embryonic day 14 (E14) to day 17 (E17) Sprague Dawley rats, were plated on poly-L-lysine (100 μg/ml)-coated cover slips for 2 weeks and grown in Neurobasal medium supplemented with B27 (Life Technologies). To remove proliferating glial cells, cultures were pulsed twice with fluorodeoxyuridine (20 μM) from days 2-6 and from days 8 to 10. Then human OPCs, prepared as described above, were added to DRG neuron drop cultures. The culture media for rat OPC-DRG co-culture is Neurobasal medium supplemented with B27 and 100 ng/ml NGF with fresh compounds changed twice per week. The culture media for human OPC-rat DRG co-culture is the proliferation media for human OPCs without purmorphamine and FGF/PDGF. Compound 1 (0.02, 0.2, or 2 μM) or DMSO control treatment started 1 day after OPCs were added to DRG culture. To visualize myelination, cultures were fixed by 4% paraformaldehyde (PFA) and labeled with anti-myelin basic protein (MBP) antibodies to identify changes in myelination by ICC.

[5] = target: T1, sphingosine-1-phosphate receptor 4 (S1P4) (Homo sapiens, UniProt O95977); conditions: cited from earlier work
T1 sequence (O95977 1-384): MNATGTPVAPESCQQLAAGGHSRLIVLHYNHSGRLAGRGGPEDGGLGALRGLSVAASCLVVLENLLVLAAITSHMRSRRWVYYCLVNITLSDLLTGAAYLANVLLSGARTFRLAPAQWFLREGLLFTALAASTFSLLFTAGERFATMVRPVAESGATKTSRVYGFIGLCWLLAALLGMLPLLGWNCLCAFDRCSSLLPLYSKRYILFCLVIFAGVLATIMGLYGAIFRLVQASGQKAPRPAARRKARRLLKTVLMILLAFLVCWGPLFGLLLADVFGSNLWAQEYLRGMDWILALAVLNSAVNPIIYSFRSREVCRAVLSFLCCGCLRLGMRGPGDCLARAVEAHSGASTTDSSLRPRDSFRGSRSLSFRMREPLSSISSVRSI

[6] = tested on: LPC induced corpus callosum demyelination; experiment: LPC induced corpus callosum demyelination model; type: in vivo; conditions: rat LPC corpus callosum model
rat OPCs = experiment: Sterol metabolite levels in rat OPC cultures (Metabolon HD4); type: cell-based; conditions: rat OPC culture
Method: Enriched populations of oligodendrocytes from female Sprague Dawley postnatal day 2 (P2) rats were grown in culture. Briefly, the forebrain was dissected and placed in Hank's buffered salt solution (HBSS) (Life technologies). The tissue was cut into 1 mm fragments and incubated at 37° C. for 15 min in 0.01% trypsin and 10 μg/ml DNase. Dissociated cells were plated on poly-D-lysine (PDL)-coated T75 tissue culture flasks and grown at 37° C. for 10 days in Dulbecco's Modified Eagle Medium (DMEM) with 20% fetal calf serum (Life technologies). Oligodendrocyte precursors (A2B5+) were collected by shaking the flask overnight at 200 rpm at 37° C., resulting in a 95% pure population. Cultures were maintained in a defined growth medium (high glucose DMEM, 0.1% BSA, 50 ug/ml Apo-transferrin, 5 ug/ml insulin, 30 nM sodium selenite, 10 nM biotin and hydrocortisone) with 10 ng/ml fibroblast growth factor/platelet-derived growth factor (FGF/PDGF) (Peprotech) for 2-3 days. For assessing the ability of Compound 1 to promote the differentiation of rat A2B5+ progenitor cells into mature myelin basic protein positive (MBP+) myelinating oligodendrocytes, A2B5+ cells were plated into 10-cm PDL coated culture plates in FGF/PDGF free growth medium supplemented with 10 ng/ml CNTF and 15 nM T3 and were immediately treated for with Compound 1. The cell pellets were collected at 24 hours and 72 hours in culture and stored at −80° C. The cell pellets were subsequently shipped to Metabolon (Morrisville, NC, USA) and maintained at −80° C. during shipping and storage until processed. The cell pellet samples were extracted with methanol under vigorous shaking for 2 min (Glen Mills GenoGrinder 2000) to precipitate protein and dissociate small molecules bound to protein or trapped in the precipitated protein matrix, followed by centrifugation to recover chemically diverse metabolites. The resulting extract were next aliquot and analyzed on Metabolon's HD4 platform. Several types of quality control samples, including recovery standards added prior to extraction, technical replicates from a pool combined from each experimental sample, process and solvent blanks, and spiked a cocktail of QC standards, were applied during sample preparation and analysis for quality assessment and filtering failed samples.

[7] = tested on: LPC induced spinal cord demyelination; experiment: LPC induced spinal cord demyelination model; type: in vivo, rat; conditions: oral, daily from Day 3, sacrifice Day 9
human iPSC-derived OPCs = experiment: Human iPSC-derived OPC differentiation (MBP+ cells); type: cell-based; conditions: 0.02 and 0.2 μM, 40 days
Method: Human induced pluripotent stem cell (iPSC) derived OPCs were maintained in proliferation media, composed of advanced DMEM-F12 supplemented with N2, B27, Glutamax, […] heparin (Sigma), 1 μM purmorphamine (Merck), 20 ng/ml FGF/PDGFa (Peprotech), 10 ng/ml IGF (Peprotech), and 60 ng/ml T3 (Sigma). To allow OPC differentiation, purmorphamine and FGF/PDGF were removed from the culture media. Compound 1 (0.02 and 0.2 μM) was incubated with human iPSC-derived OPCs in the differentiation media for 40 days.

[8] = tested on: rat A2B5+ oligodendrocytes / DRG neuron co-culture; experiment: OPC/DRG co-culture myelination assay (MBP Western blot); type: cell-based; conditions: 13 days co-culture
Method: Embryonic dorsal root ganglia (DRG) dissected from embryonic day 14 (E14) to day 17 (E17) Sprague Dawley rats, were plated on poly-L-lysine (100 μg/ml)-coated cover slips for 2 weeks and grown in Neurobasal medium supplemented with B27 (Life technologies). To remove proliferating glial cells, cultures were pulsed twice with fluorodeoxyuridine (20 μM) from days 2-6 and from days 8-10. Then rat A2B5+ oligodendrocytes were added to DRG neuron drop cultures in the presence or absence of compounds at 37° C. with 5% CO2 for 13 days. The culture media (Neurobasal medium supplemented with B27 and 100 ng/ml nerve growth factor (NGF)) with fresh compounds were changed twice per week. Myelination is determined by Western blotting to quantify MBP level.

circulating cholesterol [9] = experiment: 28-day multiple-dose study in healthy volunteers: circulating cholesterol and serum sterols; type: in vivo, human
Method: as §1, §2
Blood was periodically withdrawn from each volunteer and immediately stored at −80° C. For measuring metabolite concentrations in human serum, the samples were centrifuged and the resulting supernatant was used for further analysis.
Free oxysterols were extracted from the samples with methanol using the Biocrates Kit filter plate. The plate was loaded with an internal standard mixture beforehand. The metabolite concentrations were determined by UHPLC-MS/MS with multiple reaction monitoring (MRM) in a positive mode using a SCIEX API 5500 QTRAP® (AB SCIEX, Darmstadt, German) instrument with electrospray ionization (ESI). Data were quantitated using appropriate mass spectrometry software and imported in Biocrates Met/DQ™ software for further analysis.

In the case of `CC[C@H]1CC[C@@H](Oc2ccc3cc(CN4CCC(C(=O)O)CC4)ccc3c2)CC1` [Compound 1, 1-((6-(((1s,4s)-4-ethylcyclohexyl)oxy)naphthalen-2-yl)methyl)piperidine-4-carboxylic acid], the “remyelination (myelinated axons in corpus callosum lesions)” value [1] is reported as “dose dependent enhancement of remyelination”, the “steady-state concentration of Compound 1” value ([2]; daily dose of 60 mg) is reported as “about 3 μg/mL” and the “time of increase to steady-state concentrations of Compound 1 in plasma” value ([2]; daily dosing) is reported as “approximately 15 days”. For the same molecule, the absolute monocyte counts (neutrophils; 60 mg QD, except the patient who discontinued) was “remained throughout the study in the normal range”, the “other participants with decline in absolute neutrophil count” value (from here on “other participants with decline”) (neutrophils; Cohort 4, 30 mg) was 6 participants and the “other participants with decline” value (neutrophils; Cohort 5, 60 mg loading dose followed by 10 mg maintenance dose) was 6 participants. The “other participants with decline” value (neutrophils; Cohort 6) was 5 participants, the “participants with neutropenia AE leading to discontinuation” value (neutrophils; Cohort 6, 60 mg) was 1 participant and the “other participants with decline” value (neutrophils; Cohort 7) was 5 participants. The “participants with neutropenia AE leading to discontinuation” value (neutrophils; Cohort 7, 90 mg loading dose followed by 30 mg maintenance dose) was 1 participant, the “other participants with decline” value (neutrophils; all doses ≥30 mg) was 22 participants and the “absolute neutrophil count from baseline” value (neutrophils; doses ≥30 mg) was “dose-dependent decline”. The “extent of neutrophil count decline” value (neutrophils; low doses <30 mg, Cohorts 1, 2, and 3) was “indistinguishable from placebo control”, the “participants who developed CTCAE grade 3 neutropenia” value (neutrophils; whole study of Example 1) was “Two of 56” and the “concentration of circulating cholesterol in the model” value (circulating cholesterol [3]; by daily dose) was “reduced at all daily doses higher than 10 mg”. For the same molecule, the “predicted decrease in circulating cholesterol” value (circulating cholesterol [3]; model prediction, 60 mg QD) was “approximately 35%”, the “EC50 for reduction in circulating cholesterol concentration” value (circulating cholesterol [3]; population PK/PD model, plasma concentration of Compound 1) was “about 3 μg/mL” and the “amount of MBP+ myelinated axon clusters relative to control” value [4] was “increased”. The S1P4 activity [5] was “known inhibitor”, the remyelination [6] was “enhanced remyelination” and the “7-DHC vs vehicle control” value (rat OPCs; 24 hours) was 8.3 folds. The “cholesterol vs vehicle control” value (rat OPCs; 24 hours) was 0.64 folds, the “desmosterol vs vehicle control” value (rat OPCs; 24 hours) was 0.44 folds and the “7-DHC vs vehicle control” value (rat OPCs; 72 hours) was 12.86 folds. For the same molecule, the “cholesterol vs vehicle control” value (rat OPCs; 72 hours) was “insignificant change”, the “desmosterol vs vehicle control” value (rat OPCs; 72 hours) was 0.4 folds and the “dose for 90% of maximum observed biologic effect (ED90)” value [7] was 3 mg/kg. The “minimal efficacious dose (remyelinated axon fibers in the lesions)” value [7] was 0.3 mg/kg, the “remyelination (myelinated axons, toluidine blue)” value [7] was “enhanced remyelination in a dose dependent manner” and the “number of MBP+ cells relative to control” value (human iPSC-derived OPCs) was “increased”. The “myelination (MBP level by Western blotting)” value [8] was “promoted myelination in OPC/DRG co-culture assay in a dose-dependent manner”, the “7-dehydrocholesterol (7-DHC) level” value (circulating cholesterol [9]; healthy human volunteers) was “causes accumulation of 7-dehydrocholesterol” and the “average decrease in total cholesterol” value (circulating cholesterol [9]; healthy volunteers, 60 mg dose, Study 1) was “approximately 20%”. For the same molecule, the total circulating cholesterol (circulating cholesterol [9]; healthy volunteers, QD over 28 days, FIG. 1 (10, 30, 60 mg per day vs placebo)) was “gradual, time- and dose-dependent reduction”.
